Data as given in patent publication US5506147A, “Non-invasive evaluation of maldigestion and malaborption” (priority 1994, dated 1996).
Values joined by “and” are separate entries in the source; they are usually repeats but may differ in a detail not shown here. Equal values may be shown once.

Assays:
[1] = system: chymotrypsin; assay: Bentiromide test with stable isotope PABA, serum PABA ratio by GC/MS (Pancreatic Ratio); type: in vivo, human
Procedure: The abundance of PABA and PABA isotope of the type administered to the patient in the 0-time sample is determined and compared to the abundance of PABA (from cleavage of bentiromide) and isotope PABA in the second sample. After adjustment for differences in the abundance of the identical quantities of PABA isotope used for standardization placed in the assay, the value of PABA in the 0-time sample is subtracted from the abundance of the PABA in the second sample (a like correction is also applied to the PABA isotope of the type administered) and a ratio of natural PABA to PABA isotope of the type administered is then determined. Individuals with a ratio greater than 0.32 are considered normal, individuals with a ratio of 0.28-0.32 are considered indeterminate, individuals with a ratio of less than 0.28 are considered abnormal.
Pancreatic and small bowel function were simultaneously evaluated using a gas chromatographic mass spectrometric (GC/MS) method on serum samples. In this method, xylose absorption was quantitated using [^13 C]1 -xylose, a stable isotope of xylose. Absorption of p-aminobenzoic acid (PABA), released from bentiromide by the action of endogenous chymotrypsin, was compared to the absorption of stable isotope PABA (^13 C6), administered orally simultaneously with bentiromide. The ratio (Pancreatic Ratio) of bentiromide PABA to stable isotope PABA in 60-minute sera samples was determined and expressed as a fraction and quantitated relative to added 2,6[^2 H]2 -PABA.
A person presented with diarrhea and hyperthyroidism and was also noted to have significant steatorrhea (63 g fat/24 hours). The patient was further evaluated with standard serum D-xylose testing, which was abnormal (13 mg/dl, nl 20-40). […] The patient then was given the above GC/MS test. A 0-time 10 ml blood sample was taken; 6.7 mg of bentiromide was administered along with 2.0 mg of stable isotope PABA and 5 g D-xylose, and 8 fl. oz of Resource. Sixty minutes later, 10 ml of blood was drawn. The sera after clotting was collected and the PABA, [^13 C]6 -PABA and xylose were purified and assayed by GC/MS.
At 0-time, a blood sample was taken from all patients in the amount of 10 ml, yielding 4-6 ml of serum, an aliquot of which was analyzed by GC/MS for PABA content.
Bentiromide in the amount of 6.7 mg and stable isotope PABA ([^13 C]6 -PABA) in the amount of 2 mg was administered to normal patients and patients with various pancreatic injuries after Internal Review Board approval. After an overnight fast (nothing by mouth after midnight except water or coffee with cream), a 0-time blood sample was drawn. The patients then drank 8 oz. of Resource followed immediately (within less than five minutes) by the test solution comprising 6.7 mg bentiromide, 2 mg stable isotope PABA, and 5 grams of D-xylose dissolved in 30 cc (1 oz.) of water. Sixty minutes later, 10 mls of blood were drawn and the subjects dismissed.
Serum collected one hour after the test meal was analyzed by GC/MS for the ratio of natural PABA to stable isotope PABA. The simultaneous administration of stable isotope PABA with bentiromide corrects for variations in gastric emptying, intestinal absorption, renal function and interfering substances in serum.
Bentiromide and stable isotope PABA were administered as set forth in Example 2 to four groups of patients designated A, B, C, and D on the X axis of FIG. 1. The ratio of labelled (i.e. stable isotope PABA) to bentiromide PABA in sera at 60 minutes is shown on the Y axis.
Several types of columns are used in this analysis and these include a strong anion exchange column (SAX), a strong cation exchange column (SCX), and a C18 column. The SAX and SCX columns are prepared in disposable plastic columns containing 50 mg of each resin. Prior to use, the column is prepared by a column volume of methanol followed by four washings with four column volumes of water. […]

[2] = system: chymotrypsin; details: cited from earlier work
[3] = clinical; parameters: species or system human; details: in vivo
Text: Xylose is purified for detection by GC/MS by the process shown in Example 7. The purification process involves rapid deproteination and two-hour derivatization. The analysis involves the examination of one specific ion (M/Z 417) of one specific anomeric peak. Because of natural anomers and possibly incomplete derivatization of carbohydrates, xylose may show several peaks on GC/MS. It is necessary to use a peak providing a linear assay. In the present assay, using a ten-meter column, xylose elutes at 6.6 minutes when the temperature is ramped from 80°-300° C. using helium gas at a head pressure of 50 psi. A second smaller peak elutes at 6.7 minutes. […]
The xylose is also measured in the second fluid sample by GC/MS. […] A value less than or equal to about 2.5 mg/dl is read as abnormal.
Pancreatic and small bowel function were simultaneously evaluated using a gas chromatographic mass spectrometric (GC/MS) method on serum samples. In this method, xylose absorption was quantitated using [^13 C]1 -xylose, a stable isotope of xylose. […] The ratio (Pancreatic Ratio) of bentiromide PABA to stable isotope PABA in 60-minute sera samples was determined and expressed as a fraction and quantitated relative to added 2,6[^2 H]2 -PABA. […]
17. Place supernatant fluid into autosampler vial and examine by GC/MS using ^13 C1 -xylose as a standard for quantitation The derivatized xylose has four peaks. […]

[4] = human, in vivo, po
Procedure: The serum xylose test is one of the best non-invasive methods for diagnosing intestinal malabsorption. In this test, D-xylose, a five-carbon sugar not naturally present in the body or in foodstuffs, is given orally and an estimation of the increase in serum xylose content is carried out through colorimetric determination (CD) of non-glucose reducing sugars in serum. However, the test is occasionally misleading by giving both false positive and false negative results. Older xylose tests measured xylose in the urine. Problems with this test include the fact that the Roe and Rice method of D-xylose analysis is non-specific and cross-reacts partially with glucose. […] Furthermore, the test critically depends on complete emptying of the urinary bladder at five hours and on intact renal function.
An isotope dilution assay was developed for serum xylose using GC/MS to compare to the CD of serum xylose from a commercial diagnostic company to see if variations in the analysis itself may be a contributing cause to the misleading clinical results. Since GC/MS analysis relies on both column separation and mass identification, it is more specific for xylose determination than CD.

[5] = Alcoholic Pancreatitis (n = 4), serum one hour
[6] = Cystic Fibrosis (n = 16), serum one hour
[7] = Other Pancreatitis (n = 4), serum one hour

Which back exchange (boiling water) does the source give for `[2H]c1c([2H])c(C(=O)O)c([2H])c([2H])c1N` [Example 12, 4-aminobenzoic-2,3,5,6-[^2 H]4] here?
The back exchange was “lack of reaction in boiling water”.

And the decomposition (hot dilute acid)?
Its decomposition is “extensive decomposition in hot dilute acid”.

Which results are given for `O=C(O)c1ccc(NC(=O)[C@H](Cc2ccc(O)cc2)NC(=O)c2ccccc2)cc1` [Bentiromide, N-benzoyl-L-tyrosyl-p-aminobenzoic acid]?
Ratio in % of Natural PABA to Stable Isotope PABA [1, 5]: 5 ± 6%; Ratio in % of Natural PABA to Stable Isotope PABA, range [1, 5]: 0-14%; Ratio in % of Natural PABA to Stable Isotope PABA [1, 6]: 4 ± 3%; Ratio in % of Natural PABA to Stable Isotope PABA, range [1, 6]: 0-11%; PABA ratio in sera at 60 minutes, FIG. 1 ([1]; Group B, cystic fibrosis): < 0.32; PABA ratio in sera at 60 minutes, FIG. 1 (in words) ([1]; Group C, failed to improve on pancreatic supplementary enzymes): this entire Group C is normal; Ratio in % of Natural PABA to Stable Isotope PABA, range ([1]; Normals (n = 38), serum one hour): 34-200%; Ratio in % of Natural PABA to Stable Isotope PABA ([1]; Normals (n = 38), serum one hour after 6.7 mg bentiromide and 2 mg [^13 C]6 -PABA): 80 ± 20%; Ratio in % of Natural PABA to Stable Isotope PABA [1, 7]: 7 ± 6%; Ratio in % of Natural PABA to Stable Isotope PABA, range [1, 7]: 1-16%; Ratio in % of Natural PABA to Stable Isotope PABA ([1]; Partial Pancreatectomy (n = 2), individual values, serum one hour): 2% and 37%; ratio of natural PABA to PABA isotope ([1]; patients with documented pancreatic insufficiency, 60-minute samples): ≤ 0.18; Pancreatic Ratio ([1]; person with steatorrhea, sixty minutes, 6.7 mg bentiromide, 2.0 mg stable isotope PABA, nl greater than 0.32): 0.06; plasma bentiromide test result in cystic fibrosis patients [2]: abnormally low

Which concentration at 1 h ([3]; human, po) does the source give for `O=C[C@H](O)[C@@H](O)[C@H](O)CO` [xylose, D-xylose] here?
The concentration at 1 h was 150 µg/mL.

What about the “xylose analysis, FIG. 4 (in words)” value [3] of the same compound?
Its value is “low”.

And the “standard serum D-xylose testing” value [4]?
The value was 13 mg/dL.

And the “xylose content by CD, sera post xylose administration” value [4]?
Its value is 3 to 52 mg/dL.
